This experiment concerns the target T1, CDK2 (Homo sapiens, UniProt P24941).
T1 construct: made in house; host or cells: Sf21 insect cells (stated for the CDK2/Cyclin E option; by analogy to CDK4/Cyclin D1 baculovirus co-infection)
In words: CDK2 inhibition assay (in vitro kinase SPA, by analogy to the CDK4 assay). Format: biochemical. To be noted: read-out: CDK2 inhibitory activity IC50. The method, then: The compounds were tested in an in vitro kinase assay in 96 well format using Scintillation Proximity Assay (SPA—obtained from Amersham) for measuring incorporation of [γ-33-P]-Adenosine Triphosphate into a test substrate (GST-Retinoblastoma). In each well was placed the compound to be tested (diluted in DMSO and water to correct concentrations) and in control wells either p16 as an inhibitor control or DMSO as a positive control.
Approximately 0.5 μl of CDK4/Cyclin D1 partially-purified enzyme (amount dependent on enzyme activity) diluted in 25 μl incubation buffer was added to each well then 20 μl of GST-Rb/ATP/ATP33 mixture (containing 0.5 μg GST-Rb and 0.2 μM ATP and 0.14 μCi [γ-33-P]-Adenosine Triphosphate), and the resulting mixture shaken gently, then incubated at room temperature for 60 minutes.
To each well was then added 150 μL stop solution containing (0.8 mg/well of Protein A-PVT SPA bead (Amersham)), 20 pM/well of Anti-Glutathione Transferase, Rabbit IgG (obtained from Molecular Probes), 61 mM EDTA and 50 mM HEPES pH 7.5 containing 0.05% sodium azide.
The plates were sealed with Topseal-S plate sealers, left for two hours then spun at 2500 rpm, 1124×g., for 5 minutes. The plates were read on a Topcount for 30 seconds per well. […]

Take `N#Cc1ccccc1Nc1nc(Nc2ccc(S(N)(=O)=O)cc2)ncc1Cl` [Example 23, 2-(4-Sulphamoylanilino)-4-(2-cyanoanilino)-5-chloropyrimidine]: the half-maximal inhibitory concentration (IC50) worked out at 347 nM.

In general, IC50 refers to the concentration that gives 50% inhibition.

(Values after patent US7153964B2, “Pyrimidine compounds” (AstraZeneca AB, priority 2000, dated 2006).)
